Values joined by “and” are separate entries in the source; they are usually repeats but may differ in a detail not shown here. Equal entries are not always repeated.
biological target: Transforming acidic coiled-coil-containing protein 3 (Homo sapiens) (UniProt Q9Y6A5); test: ARNT/TACC3 interaction disruptors, potency, confirmation, biochemical, AlphaScreen, cherry-picked samples (AID 651703); conditions: AlphaScreen His-ARNT PAS-B / GST-TACC3 binding, luminescence;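 also: TACC3 partner is the GST-tagged E629A mutant dimer; hits lower the signal meaning they disrupt ARNT binding to TACC3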

Cc1cccc(S(=O)(=O)N[C@H]2CC[C@@H](CCn3cc(-c4ccccn4)nn3)O[C@@H]2CO)c1 and O=S(=O)(N[C@@H]1CC[C@H](CCn2cc(-c3ccccn3)nn2)O[C@@H]1CO)c1cccc(Cl)c1 are within 1.5-fold of each other in AC50: 24.3 µM for the first, 16.7 µM for the second.

CN(C)S(=O)(=O)c1cccc(NC(=O)CSc2cccc3cccnc23)c1 and CCCC(=O)NC(c1ccccc1)c1ccc2cccnc2c1O (stereo unspecified) are within 1.5-fold of each other in AC50: 5.76 µM for the first, 4.6 µM for the second.

Going from C#CCOCCOCCOCCNc1nc(N2CCN(C(=O)[C@H](CC(N)=O)n3cc([C@@H](N)CC(N)=O)nn3)CC2)nc(N2CCN(C(=O)[C@H](CC(N)=O)n3cc([C@@H](N)CC(N)=O)nn3)CC2)n1 to CC(C)(C)OC(=O)N1CCN(Cc2ccc(O)c3ncccc23)CC1, the AC50 falls from 47.1 µM to 0.625 µM (75-fold).

Compared with O=C(N[C@H]1CC[C@@H](CCn2cc(-c3ccccn3)nn2)O[C@@H]1CO)c1cccnc1, O=C(N[C@H]1CC[C@H](CCn2cc(-c3ccccn3)nn2)O[C@H]1CO)c1ccncc1 is 1.6-fold higher in AC50: 9.19 µM for the first, 14.4 µM for the second.

O=C(Oc1cccc2cccnc12)c1ccco1 and Cc1ccc2ccc3cccnc3c2n1 are within 1.5-fold of each other in AC50: 9.83 µM for the first, 7.33 µM for the second.

Going from CC1(C)Cc2c(sc3nc4n(-c5ccccc5)c(=O)c(CCC(=O)O)nn4c(=O)c23)CO1 to CCCn1nc(C(=O)Nc2nc(-c3ccccn3)cs2)c2ccccc2c1=O, the AC50 falls from 19.2 µM to 9.63 µM (2-fold).

Compared with CCOc1ccc(NC(=O)c2c(NC(=O)CNCCN3CCOCC3)sc3c2CCC3)cc1, COc1ccc(NC(=O)CSc2c(C)nn(-c3nnc(C)c(=O)[nH]3)c2C)cc1 is 1.7-fold higher in AC50: 14.6 µM for the first, 25.2 µM for the second.

First: O=C(N/N=C/c1cc(Cl)cc(Cl)c1O)c1ccncc1
Second: Cc1ccccc1-n1c(O)c(/C=N/NC(=O)c2ccncc2)c(=O)[nH]c1=O
The AC50 of the first is 3.2-fold lower: 3.58 µM for the first, 11.5 µM for the second.

Compared with Oc1c(I)cc(I)c2cccnc12, Oc1ccc(CNC2CCc3ccccc32)c2cccnc12 (stereo unspecified) is 6.1-fold lower in AC50: 7.46 µM for the first, 1.22 µM for the second.

Compared with CN1CCN(C2CCN(Cc3ccc(O)c4ncccc34)CC2)CC1, O=C(CSc1ccc(-c2ccccn2)nn1)N1CCCc2ccccc21 is 2.3-fold higher in AC50: 2.3 µM for the first, 5.32 µM for the second.

Cc1nnc(NC(=O)c2ccc(S(=O)(=O)N3CC(C)OC(C)C3)cc2)o1 (stereo unspecified) and CCC(C)c1c(N)n(S(=O)(=O)c2ccc(C)cc2)oc1=O (stereo unspecified) are within 1.5-fold of each other in AC50: 44.6 µM for the first, 44.1 µM for the second.

C/C(=N\NC(=O)c1c[nH]c2ccccc12)c1ccc(C)o1 and Cc1cccc(CNC(=O)c2cc(-c3ccccc3)on2)c1 are within 1.5-fold of each other in AC50: 16.4 µM for the first, 23.4 µM for the second.

First: O=S(=O)(c1ccc(Br)cc1)c1nc(-c2ccco2)oc1NCCCn1ccnc1
Second: N#Cc1ccc(OCC(=O)NCCCn2ccnc2)cc1
The AC50 of the first is 3.9-fold higher: 33.9 µM for the first, 8.65 µM for the second.

Compared with Cc1cc(=O)[nH]c(-n2[nH]c3c(c2=O)CCCC3)n1, CCN(CC)C(=O)c1sc2nc(-c3ccccn3)[nH]c(=O)c2c1C is 3.7-fold lower in AC50: 39.3 µM for the first, 10.5 µM for the second.

Going from Cc1cccc(NC(=O)CSc2ccc(-c3ccccn3)nn2)c1C to COc1cc(NC(=O)CSc2ccc(-c3ccccn3)nn2)cc(OC)c1, the AC50 falls from 2.86 µM to 1.78 µM (1.6-fold).

First: CC(C)C(=O)NC(c1cccc([N+](=O)[O-])c1)c1ccc2cccnc2c1O (stereo unspecified)
Second: COc1ccccc1CNC(=O)CSc1ccc(-c2ccccn2)nn1
The AC50 of the first is 2.5-fold lower: 3.82 µM for the first, 9.48 µM for the second.

Compared with Cc1ccc(Nc2nc(-c3ccccn3)nnc2-c2ccccc2)cn1, c1ccc(-c2nnc(Nc3nc(-c4ccccn4)nnc3-c3ccccc3)s2)cc1 is higher in AC50: < 0.5 µM for the first, 1.74 µM for the second.

Going from O=C(N/N=C/c1ccccc1O)C1SCCCS1 to O=C(N/N=C/c1cc(Br)ccc1O)C(c1ccncc1)N1CCOCC1 (stereo unspecified), the AC50 falls from 22.6 µM to 13.4 µM (1.7-fold).

Compared with O=C(CN1CC(=O)Oc2ccccc21)OCC(=O)c1ccccc1, CC(=O)Nc1cccc(C(=O)OCC(=O)Nc2nnc(-c3ccccc3)o2)c1 is 15-fold higher in AC50: 1.1 µM for the first, 16.3 µM for the second.

O=C(Nc1ccc(Cl)cc1)O/N=C(\c1ccccc1)c1ccccn1 and O=C(N[C@H]1CC[C@@H](CCn2cc(-c3ccccn3)nn2)O[C@H]1CO)c1ccccc1 are within 1.5-fold of each other in AC50: 17.6 µM for the first, 12.1 µM for the second.

Going from COc1cc2c(c(OC)c1OC)-c1ccc(O)c(=O)cc1[C@@H](NC(C)=O)CC2 to COc1cc(-c2nnc(NC(=O)c3ccco3)o2)cc(OC)c1OC, the AC50 rises from 40.8 µM to 66.9 µM (1.6-fold).

First: COc1cc(CNCc2ccccn2)ccc1OCc1cccc(Cl)c1
Second: Cc1cccc(Nc2nc(-c3ccccn3)cs2)n1
The AC50 of the first is 9-fold higher: 62.6 µM for the first, 6.95 µM for the second.

First: O=C(CSc1ccc(-c2ccccn2)nn1)Nc1nccs1
Second: O=C(CSc1nnc(CNC(=O)c2ccc(F)cc2)o1)Nc1nccs1
The AC50 of the first is 21-fold lower: 2.93 µM for the first, 61.9 µM for the second.

CC1=C(SCc2ccccc2)C(=O)c2ccccc2C1=O and Cc1ccccc1Nc1nc(N)nc(CN(C)Cc2ccccc2Cl)n1 are within 1.5-fold of each other in AC50: 39.7 µM for the first, 53.5 µM for the second.

Going from CCN(CC)S(=O)(=O)c1ccc(NN)nc1 to CCSc1nnc(NC(=O)c2ccccn2)s1, the AC50 falls from 8.98 µM to 3.61 µM (2.5-fold).

First: c1ccc(-c2cn(C[C@H]3CC[C@H](Cn4cc(-c5ccccn5)nn4)O3)nn2)nc1
Second: N[C@H]1CC[C@@H](CCn2cc(-c3ccccn3)nn2)O[C@H]1CO
The AC50 of the first is lower: < 0.5 µM for the first, 1.42 µM for the second.

Going from c1ccc(-c2nc(-c3ccncc3)n[nH]2)nc1 to O=C(N/N=C/C=C/c1ccco1)c1cnccn1, the AC50 rises from 2.79 µM to 55.4 µM (20-fold).

O=[N+]([O-])c1ccc(O)c(-c2nn[nH]n2)c1 was tested, and the AC50 was 14 µM.

For Oc1ccc(CN2CCc3ccccc3C2)c2cccnc12, the AC50 was 0.919 µM and 1.08 µM and 2.25 µM.
